Results on three compounds are retold here after patent publication US8036738B2, “Iontophoretic transdermal drug delivery system based on conductive polyaniline membrane” (priority 2006, dated 2011).

Where a name gives a salt, the structure may show the parent alone. Read-outs that look alike come from different tables or passages of the source.

On data set [1], the source says:
For the permeation study of PANi membrane based on aqueous-organic partitioning system, doxycycline HCl suspension in light mineral oil was used as the donor solution so that its permeation results would be compared with those from a hydrophilized polyvinylidene fluoride (PVDF) membrane in a general way.

A short description of data set [2]: Iontophoretic release through mouse skin with and without PANi membrane. It is filed as in vitro ADME. Conditions: PANi membrane and mouse skin together, iontophoresis, aqueous donor without chemical enhancer.
Test in data set [3]: as above
It is filed as in vitro ADME. Particulars: 0.3 mA/cm^2, EtOH:water 2:1 with 5% linoleic acid. Here is the method:
Skin membranes: Male hairless mice, strain SKH1, 8 weeks old, were supplied by Charles River Laboratories (Wilmington, Mass.). Mice were euthanized by carbon dioxide asphyxiation. Their skins were excised and kept at −30° C. until used.
In the case of skin membranes, the plastic bags containing the mouse skins were first taken out of the freezer and put into a beaker filled with room temperature water until they were defrosted. The skin samples were then removed from the plastic bags and cleaned of adhering fat deposits. They were then cut into small pieces of appropriate size and carefully mounted on top of the diffusion cells and left to equilibrate for 1 hour.
[formula] […] Results and Discussion
Three sets of iontophoretic experiments were carried out. In the first set, as a control test, traditional Ag|AgCl electrodes were used for the mouse skin only without the PANi membrane. In the other two sets, with the PANi membrane and the mouse skin together, either PANi|AgCl configuration or the Ag|AgCl configuration as electrodes was tested.
Therefore, instead of using a simple aqueous solution, 5% linoleic acid was added to the doxycycline HCl solution consisting of ethanol and water (EtOH: water=2:1, v/v). The reason for using ethanol was to increase the solubility of linoleic acid in the water.

On data set [4], the source says:
To study the iontophoretic property of the PANi membranes, standard Ag|AgCl electrode was used.
The source holds these as a separate data set.

For data set [5] the following is noted: PVDF membrane, aqueous-organic partitioning system, ref [9], cited from earlier work.
Data set [6] in a line: Release through PANi membrane in Franz diffusion cell, no iontophoresis.
Where [7] appears, read: PANi + skin, Ag|AgCl electrodes.
[8] abbreviates: PANi + skin, PANi|AgCl electrodes.

For `C[C@H]1c2cccc(O)c2C(=O)C2=C(O)[C@]3(O)C(=O)C(C(N)=O)=C(O)[C@@H](N(C)C)[C@@H]3[C@@H](O)[C@@H]21.Cl` [Doxycycline HCl, doxycycline hydrochloride], in data set [1], the Flux is reported as 31 ± 18 μg/cm^2 hr, the Permeability was found to be 0.83 ± 0.56 ×10⁻⁶ cm/s and the Q came to 80 ± 46 μg/cm^2. For the same compound, the “release, in words” value in data set [2] is listed as “no release was achieved”. Besides, the “release, in words” value in data set [3] (PANi + skin, Ag|AgCl electrode set) was “no release”. Further, in data set [3] (setting [7]), the Flux is recorded as 0 μg/cm^2 hr and the Q24 came to 0 μg/cm^2. In data set [3] (setting [8]), the Flux was 94.4 ± 81.2 μg/cm^2 hr, the Permeability was 1.56 ± 1.33 ×10⁻⁶ cm/s and the Q24 worked out at 2760 ± 3980 μg/cm^2. In data set [3] (Skin only, Ag|AgCl electrodes), this compound showed a Flux of 48.5 ± 8.5 μg/cm^2 hr, a Permeability of 1.06 ± 0.186 ×10⁻⁶ cm/s and a Q24 of 1020 ± 642 μg/cm^2. For the same compound, in data set [4], the Experimental flux is 793 ± 111 μg/cm^2 hr; the “amount a skin patch can deliver” value was “about 0.8 mg”; the “change of flux versus passive release (Table 1), in words” value is recorded as “increased more than ten times”; the release flux rate is 793±111 μg/cm^2-hr. Besides, the Q in data set [5] (24 hr) is recorded as 1440 ± 240 μg/cm^2. In data set [5], the Flux is recorded as 146 ± 27 μg/cm^2 hr and the Permeability is 8.3 ± 2.8 ×10⁻⁶ cm/s.

Turning to `Cn1c(=O)c2c(ncn2C)n(C)c1=O` [Caffeine, caffeine], in data set [6] (PANi membrane only), the “Q24 (24 hours accumulation in the receptor part)” value stood at 573 ± 246 μg/cm^2. In addition, the Permeability in data set [6] (PANi membrane only, aqueous donor (about 200 mg/10 ml caffeine, doxycycline HCl; about 400 mg/10 ml lidocaine HCl)) came out at 3.33 ± 2.5 ×10⁻⁶ cm/s. The Flux is 240 ± 177 μg/cm^2 hr in data set [6] (PANi membrane only, aqueous donor, steady state); 66.6 μg/cm^2 h in data set [6] (caffeine donor concentration 5 mg/ml, PANi membrane); 136.2 μg/cm^2 h in data set [6] (caffeine donor concentration 10 mg/ml, PANi membrane). In data set [4], the “increase in flux vis-a-vis Table 1” value was “about 30%”. Further, the release flux rate in data set [4] came to 305±79 μg/cm^2-hr.

`CCN(CC)CC(=O)Nc1c(C)cccc1C` [Lidocaine HCl, lidocaine hydrochloride]: in data set [6] (PANi membrane only), the “Q24 (24 hours accumulation in the receptor part)” value was 3330 ± 1760 μg/cm^2. In data set [4], the Experimental flux turned out to be 411 ± 144 μg/cm^2 hr; the “change of flux versus passive release (Table 1), in words” value is given as “small decrease in the flux”; the release flux rate was determined as 411±144 μg/cm^2-hr.
